Values quoted from earlier work in patent publication US6569404B1, “Phase shift colloids as ultrasound contrast agents” (priority 1993, dated 2003).

Settings: Chemical List of low boiling liquids, Example 45; cited from earlier work

Compound	Boiling Point
C=CC(=C)C [Isoprene]	34.0 degrees Celcius
C=C=C [Allene]	−34.5 degrees Celcius
COC=O [Formic acid, methyl ester]	31.5 degrees Celcius
FC(F)(F)SCl [Methanesulfenylchloride, trifluoro]	−0.7 degrees Celcius
CC=CC#N [Crotononitrile]	12.0 degrees Celcius
C#CC(C)C [Acetylene, isopropyl]	0.0 degrees Celcius
CC(=O)F [Acetyl fluoride]	20.8 degrees Celcius
C=CC=C [1,3-Butadiene]	−4.4 degrees Celcius
FC(F)(F)N=NC(F)(F)F [Azomethane, hexafluoro]	−31.6 degrees Celcius
FC1=C(F)C(F)(F)C1(F)F [Cyclobutene, perfluoro]	3.0 degrees Celcius
CCN(C)C [Dimethyl ethyl amine]	36.0 degrees Celcius
FC(F)(F)SC(F)(F)F [Trifluoromethyl sulfide]	−22.2 degrees Celcius
FC(=C(F)C(F)(F)F)C(F)(F)F [2-Butene, octafluoro]	1.2 degrees Celcius
O=C=C=C=O [Carbon suboxide]	6.8 degrees Celcius
[N-]=[N+]=O [Nitrous oxide]	−88.5 degrees Celcius
O=NC(F)(F)Br [Methane, bromo difluoro nitroso]	−12.0 degrees Celcius
C/C=C/C [2-Butene (trans)]	0.9 degrees Celcius
FC(F)=C=C(F)F [Allene, tetrafluoro]	−38.0 degrees Celcius
FC(Cl)Cl [Methane, dichloro-fluoro]	9.0 degrees Celcius
FC(F)=C(F)C(F)(F)F [Propylene, perfluoro]	−29.4 degrees Celcius
C=CC#CCCCCC [1-Nonene-3-yne]	27.0 degrees Celcius
FC(F)(F)C(F)(F)C(F)(F)F [Propane, perfluoro]	−36.0 degrees Celcius
CCCCON=O [Butyl nitrite]	−77.8 degrees Celcius
FC(F)(Br)Br [Methane, dibromo difluoro]	24.5 degrees Celcius
CCN [Ethyl amine]	16.6 degrees Celcius
[N]=O [Nitric oxide]	−151.6 degrees Celcius
O=[N+]([O-])C(F)(F)C(F)(F)C(F)(F)F [Propane, heptafluoro-1-nitro]	25.0 degrees Celcius
O=NCl [Nitrosyl chloride]	−5.5 degrees Celcius

Compound	Boiling Point
CC1CCC(C)C(C)N1 (centres unmarked) [Piperidine,2,3,6-trimethyl]	36.0 degrees Celcius
C=C1C=CC=C1 [Fulvene]	7.0 degrees Celcius
[Kr] [Krypton]	−153.0 degrees Celcius
C1CC1 [Cyclopropane]	−32.7 degrees Celcius
FC(F)(F)C(F)(F)C(F)(F)C(F)(F)F [Decaflurobutane]	4.0 degrees Celcius
C#CC#C [Diacetylene]	22.0 degrees Celcius
O=C(O)c1c(Cl)c(Cl)c(Cl)c(Cl)c1C(=O)O [Phthalic acid, tetrachloro]	2.0 degrees Celcius
FC(F)OCC(F)(F)F [Ether, difluoromethyl 2,2,2-trifluoroethyl]	28.0 degrees Celcius
[F][W]([F])([F])([F])([F])[F] [Tungsten hexafluoride]	17.5 degrees Celcius
ClCCl [Methane, dichloro]	40.0 degrees Celcius
FCF [Methane, difluoro]	−51.6 degrees Celcius
CN(C)C [Trimethyl amine]	2.9 degrees Celcius
CP(C)NP(C)C [bis(Dimethyl phosphino) amine]	33.5 degrees Celcius
FC(F)Cl [Methane, chloro-difluoro]	−40.8 degrees Celcius
O=[N+]([O-])C(F)(F)F [Methane, nitro-trifluoro]	−31.1 degrees Celcius
FC(F)(F)SSC(F)(F)F [Dimethyl disulfide, hexafluoro]	34.6 degrees Celcius
[Xe] [Xenon]	−108.0 degrees Celcius
CN=NC [Azomethane]	1.5 degrees Celcius
FC(F)=C(F)C(F)(F)C(F)(F)F [1-Butene, perfluoro]	4.8 degrees Celcius
O=NC(F)(F)C(F)(F)C(F)(F)F [Propane, heptafluoro-1-nitrose]	−12.0 degrees Celcius
FN(F)C(F)(F)C(F)(F)F [Ethyl amine, perfluoro]	−35.0 degrees Celcius
[Ar] [Argon]	−189.4 degrees Celcius
FCBr [Methane, bromo fluoro]	19.0 degrees Celcius
CC1CC1 [Cyclopropane, methyl]	4.0 degrees Celcius
C=CCC [Example 1-Butene, 1-Butene]	−6.3 degrees Celcius
CCOC [Ethyl methyl ether]	10.8 degrees Celcius
N#CC(F)(F)F [Trifluoroacetonitrile]	−64.0 degrees Celcius

Same assay, conditions: boiling point under standard pressure conditions; chemical list arranged by total atoms; cited from earlier work

Compound	Boiling Point
FC(F)(Cl)C(F)(F)Cl [1,2-dichloro-tetrafluoro-ethane]	3.5 degrees Celcius
CC1CC1 [methyl-cyclopropane]	0.7 degrees Celcius
F[C](F)(F)[Ge]([Cl])([C](F)(F)F)[C](F)(F)F [Tris-(trifluoromethyl)-germaniumchloride]	37 degrees Celcius
CCC=C(F)F [1,1-difluoro-but-1-ene]	3.71 degrees Celcius
CCCC(F)(F)F [1,1,1-trifluoro-butane]	16.74 degrees Celcius
CCC(F)(F)F [1,1,1-trifluoro propane]	−13 degrees Celcius
CC(C)N [isopropylamine]	31.7 degrees Celcius
CCC[Si](F)(F)F [trifluoro-propyl-silane]	25 degrees Celcius
FCCC(F)(F)F [1,1,1,3-tetrafluoro-propane]	29.4 degrees Celcius
CCC1CC1 [ethyl-cyclopropane]	35.8 degrees Celcius
C=CC=C(F)F [1,1-difluoro-buta-1,3-diene]	3.5 degrees Celcius
F[C](F)(F)[Ge]([C](F)(F)F)([C](F)(F)F)[C](F)(F)F [Tetrakis(trifluoromethyl) germane]	31.7 degrees Celcius
O=C(C(F)(F)F)C(F)(F)Br [bromo-pentafluoro-acetone]	31 degrees Celcius
CCC(C)(F)F [2,2 difluoro-butane]	30.92 degrees Celcius
CC[Si](F)(F)F [ethyl-trifluoro-silane]	−4.4 degrees Celcius
CC[C@H](C)CF [(−)(S)-1-fluoro-2-methyl-butane]	14.1 degrees Celcius

Same assay, conditions: dispersed phase of emulsions of Example 18; cited from earlier work

Compound	Boiling Point
FC(F)(F)C(F)(F)C(F)(F)C(F)(F)C(F)(F)C(F)(F)C(F)(F)C(F)(F)F [Perfluorooctane, reference compound]	98 °C
FC(F)(F)C(F)(F)C(F)(F)C(F)(F)C(F)(F)C(F)(F)C(F)(F)C(F)(F)I [1-Iodoperfluorooctane, reference compound]	160 °C
FC(F)(F)C(F)(F)C(F)(F)C(F)(F)F [Decaflurobutane]	−5.8 °C
